Test results taken from PMC7978038 (Molecular pharmaceutics, 2019).
Read-outs that look alike come from different tables or passages of the source.

Columns and labels:
[1] = mice, 10 mg/kg 2-PMPA equivalent dose, mean ± SEM, n = 3
[2] = test system: 100 different transporters, enzymes, and receptors, including several glutamate targets; conditions: selectivity; cited from earlier work
in vivo [3] = conditions: male, CD-1, mouse, iv, 10 mg/kg
in vivo [4] = conditions: male, beagle, dog, po, 1 mg/kg
[5] = mice, cited from earlier work
[6] = oral 2-PMPA; cited from earlier work
[7] = mouse, microsomes
[8] = dog, microsomes
[9] = human, microsomes

| Compound | 2-PMPA plasma concentration at 30 min post oral administration [1] | 2-PMPA brain AUC0−t (mice, IV, 10 mg/kg) | 2-PMPA brain Cmax (mice, IV, 10 mg/kg) | activity at 100 different transporters, enzymes, and receptors [2] | AUC(0-t) (in vivo [3]) | Cmax (in vivo [3]) | Kp (in vivo [3]) | AUC(0-t) (in vivo [4]) | Cmax (in vivo [4]) | Tmax (in vivo [4]) | 2-PMPA plasma AUC0−t ([5]; oral 2-PMPA, ref our previously published manuscript) | oral bioavailability ([5]; oral) | oral bioavailability (F) [6] | Intestinal microsomal stability, intact prodrug level at the end of 1 h incubation [7] | Intestinal microsomal stability, intact prodrug level at the end of 1 h incubation [8] | Intestinal microsomal stability, intact prodrug level at the end of 1 h incubation [9] | metabolites (including 2 and 3) detected in plasma (mouse, in vivo, po) | fold enhancement in 2-PMPA systemic availability versus orally administered 2-PMPA ([5]; oral) |
| --- | --- | --- | --- | --- | --- | --- | --- | --- | --- | --- | --- | --- | --- | --- | --- | --- | --- | --- |
| O=C(O)CCC(CP(=O)(O)O)C(=O)O (stereo not shown) [Prodrug 2-PMPA, 2-(Phosphonomethyl)-pentanedioic acid] | 0.25 ± 0.02 nmol/mL | 1.6 ± 0.2 nmol·h/g | 1.2 ± 0.1 nmol/g | no activity | 104 ± 19 µM·h | 109 ± 9.5 µM | 0.015 | 1.44 µM·h | 0.4 µM | 2 h | 0.65 ± 0.13 µM·h | < 1% | < 1% |  |  |  |  |  |
| Cc1oc(=O)oc1COC(=O)CCC(CP(=O)(OCc1oc(=O)oc1C)OCc1oc(=O)oc1C)C(=O)OCc1oc(=O)oc1C (stereo not shown) [Prodrug 4] |  |  |  |  |  |  |  |  |  |  |  |  |  | did not show any intact prodrug level | did not show any intact prodrug level | did not show any intact prodrug level | No metabolites, including 2 and 3, were detected |  |
| CC(C)OC(=O)OCOC(=O)C(CCC(=O)O)CP(=O)(OCOC(=O)OC(C)C)OCOC(=O)OC(C)C (stereo not shown) [Prodrug 21b] |  |  |  |  |  |  |  |  |  |  |  | 11.5% |  |  |  |  |  | 20 fold |
